Test results as given in PMC8689225, “Cardiac ryanodine receptor N-terminal region biosensors identify novel inhibitors via FRET-based high-throughput screening” (The Journal of Biological Chemistry, 2021).

What was measured:
[1] = molecular target: T1, human RyR2 (Homo sapiens, UniProt Q92736); test: [Ca2+]ER load in permeabilized HEK293 cells expressing GFP-hRyR2, mCer-SERCA2a, R-CEPIA1er; assay type: cell-based; conditions: compared to vehicle
T1 construct: expressed in transfected cells; host or cells: HEK293, transient co-transfection with mCer-SERCA2a and R-CEPIA1er
Experimental: The method for measuring of [Ca^2+]ER load-leak balance in HEK293 cells was previously described ([48]). Briefly, HEK293 cells were transiently cotransfected with plasmids encoding GFP-hRyR2, mCer-SERCA2a, and R-CEPIA1er cDNAs. After 48 h of protein expression, transfected cells were used for the confocal experiments. Before each measurement, cells were washed with a solution containing (in mM): 150 K-aspartate, 0.25 MgCl2, 0.1 EGTA, 10 HEPES, pH 7.2. Then, the cellular plasma membranes were permeabilized with 0.005% saponin dissolved in the experimental solution containing (in mM): K-aspartate 100; KCl 15; KH2PO4 5; MgATP 5; EGTA 0.35; CaCl2 0.22; MgCl2 0.75; HEPES 10; dextran (MW: 40,000) 2%, pH 7.2. Free [Ca^2+] and [Mg^2+] were set at 100 nM and 1 mM respectively. After 3 min of saponin incubation, the permeabilized cells were perfused with saponin-free experimental solution.
Changes in [Ca^2+]ER load-leak balance in permeabilized HEK293 cells were monitored using a laser scanning confocal microscope (Radiance 2000 MP, BioRad) equipped with a 40× oil objective lens (N.A. =1.3). […]
Cells were perfused with the experimental solution for 3 min to ensure a steady [Ca^2+]ER signal. […] Fmax was determined upon application of 2 μM ionomycin and 10 mM Ca^2+. Changes in [Ca^2+]ER were calculated according to [Ca^2+]ER = (F−Fmin)/(Fmax−Fmin).

[2] = tested on: intact mouse ventricular cardiomyocytes; test: Ca2+ transients in intact ventricular cardiomyocytes paced at 1 Hz; assay type: cell-based
Experimental: Mouse ventricular cardiomyocytes were isolated enzymatically from hearts of male C57BL/6J mouse (10–12 weeks old, Jackson Laboratory) as previously described with minor modifications ([66]). Briefly, mice were injected with heparin (500 U/kg body weight) and anesthetized with isoflurane (2 to 5%) to a verified deep surgical plane, whereupon the heart was excised, resulting in euthanasia by exsanguination. Hearts were excised and retrogradely perfused with constant flow on a Langendorff apparatus (37 °C) with Ca^2+-free normal Tyrode’s solution, gassed with 100% O2. Collagenase type II (Worthington Biochemical Co) and protease type XIV (Sigma-Aldrich) were used for enzymatic digestion. […]
Ca^2+ activity was imaged via confocal microscopy (Bio-Rad, Radiance 2100, 40× objective) in the line scan mode (166 lines/s; ex 488 nm, em >505 nm). Ca^2+ sparks were recorded from ventricular cardiomyocytes permeabilized with saponin (50 μg/ml) for 1 min in internal solution containing (in mM) 10 HEPES, 1 EGTA, 1 free MgCl2 (with free [Ca^2+] adjusted to 50 nM using MaxChelator), 120 K-aspartate, 10 reduced glutathione, 5 ATP, 5 phosphocreatine di-Na, creatine phosphokinase 5 U/ml, and dextran (MW: 40,000) 8% at pH 7.20. […] Ca^2+ spark parameters were analyzed over a 10 s period from each line scan recording. […]

T1 sequence (Q92736 whole entry): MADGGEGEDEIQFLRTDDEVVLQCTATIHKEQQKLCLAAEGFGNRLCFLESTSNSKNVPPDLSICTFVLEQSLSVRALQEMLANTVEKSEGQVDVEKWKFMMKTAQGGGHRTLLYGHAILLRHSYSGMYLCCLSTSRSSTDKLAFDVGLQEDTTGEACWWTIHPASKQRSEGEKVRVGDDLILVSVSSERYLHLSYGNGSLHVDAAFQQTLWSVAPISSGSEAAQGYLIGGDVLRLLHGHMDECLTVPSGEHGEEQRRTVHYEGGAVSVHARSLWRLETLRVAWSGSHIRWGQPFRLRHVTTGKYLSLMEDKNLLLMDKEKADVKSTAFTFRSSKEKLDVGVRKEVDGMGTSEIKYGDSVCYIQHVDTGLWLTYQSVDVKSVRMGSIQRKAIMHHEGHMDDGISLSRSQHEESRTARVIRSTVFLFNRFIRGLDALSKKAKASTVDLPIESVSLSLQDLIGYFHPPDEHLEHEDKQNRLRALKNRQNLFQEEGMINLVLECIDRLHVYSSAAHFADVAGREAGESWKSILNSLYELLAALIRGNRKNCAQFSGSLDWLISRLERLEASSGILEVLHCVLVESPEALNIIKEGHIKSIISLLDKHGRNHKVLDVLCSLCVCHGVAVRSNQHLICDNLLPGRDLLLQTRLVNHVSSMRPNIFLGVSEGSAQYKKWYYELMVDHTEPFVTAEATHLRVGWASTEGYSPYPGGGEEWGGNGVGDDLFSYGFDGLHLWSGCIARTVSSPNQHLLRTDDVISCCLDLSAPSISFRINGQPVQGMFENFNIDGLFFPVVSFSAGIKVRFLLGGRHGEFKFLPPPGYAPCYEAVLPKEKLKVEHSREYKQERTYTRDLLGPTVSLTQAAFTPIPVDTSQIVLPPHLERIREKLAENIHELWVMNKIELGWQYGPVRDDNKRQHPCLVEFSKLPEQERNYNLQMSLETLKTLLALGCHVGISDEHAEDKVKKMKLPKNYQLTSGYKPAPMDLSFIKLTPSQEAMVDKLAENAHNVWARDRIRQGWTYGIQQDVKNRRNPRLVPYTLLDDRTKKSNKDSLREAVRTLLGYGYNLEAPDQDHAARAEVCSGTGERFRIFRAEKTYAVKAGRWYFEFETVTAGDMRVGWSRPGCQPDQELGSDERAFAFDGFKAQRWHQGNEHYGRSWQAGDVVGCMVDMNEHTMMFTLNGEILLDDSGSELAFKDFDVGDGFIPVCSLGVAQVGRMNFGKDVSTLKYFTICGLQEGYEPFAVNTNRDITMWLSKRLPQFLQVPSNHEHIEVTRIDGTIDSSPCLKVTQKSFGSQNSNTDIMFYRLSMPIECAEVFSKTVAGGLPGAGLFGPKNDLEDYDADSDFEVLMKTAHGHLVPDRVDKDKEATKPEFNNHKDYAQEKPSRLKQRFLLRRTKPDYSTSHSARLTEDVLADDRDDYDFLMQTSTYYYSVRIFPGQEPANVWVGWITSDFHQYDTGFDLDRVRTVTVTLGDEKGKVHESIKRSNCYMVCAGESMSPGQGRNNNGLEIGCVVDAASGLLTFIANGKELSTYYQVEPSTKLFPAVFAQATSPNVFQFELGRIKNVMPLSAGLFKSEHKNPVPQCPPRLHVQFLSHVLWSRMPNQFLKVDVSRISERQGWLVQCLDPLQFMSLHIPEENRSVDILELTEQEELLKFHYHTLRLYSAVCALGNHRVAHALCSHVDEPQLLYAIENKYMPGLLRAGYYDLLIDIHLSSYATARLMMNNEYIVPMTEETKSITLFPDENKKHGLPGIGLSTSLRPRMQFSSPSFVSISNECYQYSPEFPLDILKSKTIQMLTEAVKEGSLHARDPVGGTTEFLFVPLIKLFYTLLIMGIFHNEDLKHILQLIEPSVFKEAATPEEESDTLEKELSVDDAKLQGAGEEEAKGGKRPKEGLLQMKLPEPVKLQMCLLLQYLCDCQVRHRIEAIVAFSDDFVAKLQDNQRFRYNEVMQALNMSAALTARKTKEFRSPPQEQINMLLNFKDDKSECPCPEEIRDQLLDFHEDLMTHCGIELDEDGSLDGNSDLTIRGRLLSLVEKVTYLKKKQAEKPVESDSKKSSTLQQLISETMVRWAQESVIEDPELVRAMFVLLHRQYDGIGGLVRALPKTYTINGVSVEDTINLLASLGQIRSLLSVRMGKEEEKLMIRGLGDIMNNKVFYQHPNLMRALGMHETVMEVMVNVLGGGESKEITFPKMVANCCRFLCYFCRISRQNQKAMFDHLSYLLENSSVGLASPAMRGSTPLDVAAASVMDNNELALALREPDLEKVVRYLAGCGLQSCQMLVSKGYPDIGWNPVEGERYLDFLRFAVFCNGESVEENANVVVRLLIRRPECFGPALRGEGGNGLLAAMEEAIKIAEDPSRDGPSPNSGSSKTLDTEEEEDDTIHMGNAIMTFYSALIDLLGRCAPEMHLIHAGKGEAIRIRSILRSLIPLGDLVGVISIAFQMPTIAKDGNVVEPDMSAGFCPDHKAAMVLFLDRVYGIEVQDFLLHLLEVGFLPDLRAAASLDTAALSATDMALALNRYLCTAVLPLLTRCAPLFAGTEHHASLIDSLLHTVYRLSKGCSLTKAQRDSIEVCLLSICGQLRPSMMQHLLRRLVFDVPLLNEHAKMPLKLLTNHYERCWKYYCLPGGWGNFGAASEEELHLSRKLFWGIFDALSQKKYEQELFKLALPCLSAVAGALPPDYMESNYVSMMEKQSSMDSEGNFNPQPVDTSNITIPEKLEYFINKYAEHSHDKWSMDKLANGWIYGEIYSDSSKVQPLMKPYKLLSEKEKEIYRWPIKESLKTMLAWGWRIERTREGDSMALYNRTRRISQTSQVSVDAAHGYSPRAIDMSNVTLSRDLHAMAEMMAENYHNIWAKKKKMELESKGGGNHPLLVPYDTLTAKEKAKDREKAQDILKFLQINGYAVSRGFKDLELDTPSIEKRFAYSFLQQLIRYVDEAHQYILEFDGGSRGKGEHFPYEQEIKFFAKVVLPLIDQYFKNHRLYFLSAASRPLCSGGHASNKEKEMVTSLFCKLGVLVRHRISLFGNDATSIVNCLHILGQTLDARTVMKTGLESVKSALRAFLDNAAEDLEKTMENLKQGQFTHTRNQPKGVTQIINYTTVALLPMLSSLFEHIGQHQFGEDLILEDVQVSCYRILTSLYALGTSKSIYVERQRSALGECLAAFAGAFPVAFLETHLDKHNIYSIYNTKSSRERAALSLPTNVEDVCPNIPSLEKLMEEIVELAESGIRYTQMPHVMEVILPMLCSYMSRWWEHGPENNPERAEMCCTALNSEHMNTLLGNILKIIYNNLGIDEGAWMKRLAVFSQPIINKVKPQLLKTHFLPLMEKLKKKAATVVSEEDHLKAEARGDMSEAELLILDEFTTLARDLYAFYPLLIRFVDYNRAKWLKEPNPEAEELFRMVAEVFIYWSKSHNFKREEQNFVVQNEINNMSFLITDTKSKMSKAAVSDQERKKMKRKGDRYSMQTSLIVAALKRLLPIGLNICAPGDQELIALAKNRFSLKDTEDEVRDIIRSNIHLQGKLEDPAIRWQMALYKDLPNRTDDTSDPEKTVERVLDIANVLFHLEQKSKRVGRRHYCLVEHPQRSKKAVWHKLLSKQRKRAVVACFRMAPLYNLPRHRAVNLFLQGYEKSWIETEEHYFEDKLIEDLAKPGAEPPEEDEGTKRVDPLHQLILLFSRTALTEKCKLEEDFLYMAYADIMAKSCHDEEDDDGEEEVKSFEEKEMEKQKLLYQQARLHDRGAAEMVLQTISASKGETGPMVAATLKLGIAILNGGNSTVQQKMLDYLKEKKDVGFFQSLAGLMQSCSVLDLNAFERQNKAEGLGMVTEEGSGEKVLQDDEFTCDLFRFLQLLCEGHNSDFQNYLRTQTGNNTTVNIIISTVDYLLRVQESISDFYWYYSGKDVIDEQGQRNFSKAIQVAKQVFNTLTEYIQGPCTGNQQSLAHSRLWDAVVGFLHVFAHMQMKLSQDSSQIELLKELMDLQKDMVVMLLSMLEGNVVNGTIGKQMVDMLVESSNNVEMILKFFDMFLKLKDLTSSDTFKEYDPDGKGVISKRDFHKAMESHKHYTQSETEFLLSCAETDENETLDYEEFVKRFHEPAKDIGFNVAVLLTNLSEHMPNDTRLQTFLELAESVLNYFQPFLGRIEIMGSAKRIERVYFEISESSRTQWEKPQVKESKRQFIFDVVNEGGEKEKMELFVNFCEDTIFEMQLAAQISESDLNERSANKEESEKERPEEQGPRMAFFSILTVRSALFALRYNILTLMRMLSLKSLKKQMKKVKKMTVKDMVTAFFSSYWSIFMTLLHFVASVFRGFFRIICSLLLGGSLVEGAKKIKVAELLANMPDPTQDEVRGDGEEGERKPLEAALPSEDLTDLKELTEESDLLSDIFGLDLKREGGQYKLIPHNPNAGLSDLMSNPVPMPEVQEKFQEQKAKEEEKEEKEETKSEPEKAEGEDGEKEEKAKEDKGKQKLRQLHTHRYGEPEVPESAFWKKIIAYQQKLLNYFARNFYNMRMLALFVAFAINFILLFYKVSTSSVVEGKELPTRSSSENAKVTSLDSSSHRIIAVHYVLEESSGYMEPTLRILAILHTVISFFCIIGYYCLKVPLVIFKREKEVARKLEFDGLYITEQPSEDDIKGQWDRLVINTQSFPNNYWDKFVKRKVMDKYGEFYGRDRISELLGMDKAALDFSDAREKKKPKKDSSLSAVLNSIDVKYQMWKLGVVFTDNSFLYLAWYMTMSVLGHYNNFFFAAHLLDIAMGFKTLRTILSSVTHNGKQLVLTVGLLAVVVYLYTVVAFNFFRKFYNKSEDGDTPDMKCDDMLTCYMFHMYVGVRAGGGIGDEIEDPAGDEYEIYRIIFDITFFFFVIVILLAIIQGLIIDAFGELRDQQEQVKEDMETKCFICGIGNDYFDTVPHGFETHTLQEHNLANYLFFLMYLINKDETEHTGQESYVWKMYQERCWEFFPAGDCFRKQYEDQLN

SMILES: CC(=O)O[C@H]1C[C@@]2(C)[C@@H](C[C@@H](O)[C@H]3[C@@]4(C)CC[C@@H](O)[C@@H](C)[C@@H]4CC[C@@]32C)/C1=C(\CCC=C(C)C)C(=O)O [FA, (2Z)-2-[(3R,4S,5S,8S,9S,10S,11R,13R,14S,16S)-16-acetyloxy-3,11-dihydroxy-4,8,10,14-tetramethyl-2,3,4,5,6,7,9,11,12,13,15,16-dodecahydro-1H-cyclopenta[a]phenanthren-17-ylidene]-6-methylhept-5-enoic acid]
- [Ca2+]ER increase ([1]; 5 μM FA): 94 ± 17%
- [Ca2+]ER decrease ([1]; 10 μM FA): 24 ± 8%
- cardiomyocytes with arrhythmogenic Ca2+ events (total paired measures) ([2]; FA across all concentrations tested (0.01–10 μM), 6 min): 10 of 12
- Ca2+ transient amplitudes ([2]; even at very low [FA] (0.01 μM), pacing 1 Hz): some diminution
